Assay results: DBAASP
≈ marks a conversion by molar mass, not a printed value.

Tests used:
Assay in all cases: ≥ marks a high value that may be exact or a test limit, other limits are often not marked, values filed in µg/mL are converted to µM
Aspergillus fumigatus = test system: Aspergillus fumigatus
Candida albicans = test system: Candida albicans
Escherichia coli K-12 = test system: Escherichia coli K-12
Klebsiella pneumoniae = test system: Klebsiella pneumoniae
[1] = test system: Pseudomonas aeruginosa PAO1
[2] = test system: Staphylococcus aureus NCTC 8325-4
Escherichia coli JM109 = test system: Escherichia coli JM109
[3] = test system: Staphylococcus aureus ATCC 6538P
Staphylococcus aureus = test system: Staphylococcus aureus
[4] = test system: Acinetobacter baumannii CICC 22934
Bacillus cereus AS1.126 = test system: Bacillus cereus AS1.126
[5] = test system: Enterobacter cloacae CGMCC 1.58
[6] = test system: Enterococcus faecalis CGMCC 1.595
[7] = test system: Enterococcus faecium CGMCC 1.2334
Escherichia coli AS1.349 = test system: Escherichia coli AS1.349
[8] = test system: Klebsiella aerogenes CGMCC 1.876
[9] = test system: Klebsiella pneumoniae subsp. pneumoniae CGMCC 1.176
[10] = test system: Lactococcus lactis AS1.1690
[11] = test system: Proteus mirabilis CICC 22931
[12] = test system: Pseudomonas aeruginosa CGMCC 1.860
[13] = test system: Staphylococcus aureus AS1.72

Row | SMILES | MIC [4] [µM] | MIC (Bacillus cereus AS1.126) [µM] | MIC [5] [µM] | MIC [6] [µM] | MIC [7] [µM] | MIC (Escherichia coli AS1.349) [µM] | MIC [8] [µM] | MIC [9] [µM] | MIC [10] [µM] | MIC [11] [µM] | MIC [12] [µM] | MIC [13] [µM] | also measured
1 | N[C@@H](Cc1ccccc1)C(=O)N1CCC[C@H]1C(=O)N[C@@H](Cc1c[nH]c2ccccc12)C(=O)N[C@@H](Cc1c[nH]c2ccccc12)C(=O)N[C@@H](Cc1c[nH]c2ccccc12)C(=O)N1CCC[C@H]1C(=O)N[C@@H](Cc1ccccc1)C(=O)O [FPWWWPF] |  |  |  |  |  |  |  |  |  |  |  |  | MIC (Aspergillus fumigatus): ≥ 469 µM; MIC (Candida albicans): > 939 µM
2 | CC[C@H](C)[C@H](N)C(=O)N[C@@H](CCCCN)C(=O)N[C@@H](CCCCN)C(=O)N[C@H](C(=O)N[C@H](C(=O)N[C@@H](CCCCN)C(=O)N[C@@H](CCCCN)C(=O)N[C@H](C(N)=O)[C@@H](C)CC)[C@@H](C)CC)[C@@H](C)CC [IKKIIKKI] |  |  |  |  |  |  |  |  |  |  |  |  | MIC (Escherichia coli K-12): ≥ 500 µM; MIC (Klebsiella pneumoniae): > 500 µM; MIC [1]: > 500 µM; MIC [2]: ≥ 500 µM
3 | CC[C@H](C)[C@H](NC(=O)[C@H](C)NC(=O)[C@H](CC(C)C)NC(=O)[C@H](CCCN=C(N)N)NC(=O)[C@H](Cc1cnc[nH]1)NC(=O)[C@H](C)NC(=O)[C@H](C)NC(=O)[C@H](CCCN=C(N)N)NC(=O)[C@@H](N)CC(C)C)C(=O)NCC(=O)N[C@@H](CCCN=C(N)N)C(=O)N[C@@H](CCCN=C(N)N)C(N)=O [LRAAHRLAIGRR] |  |  |  |  |  |  |  |  |  |  |  |  | MIC (Escherichia coli JM109): 11.5 µM (≈ 16 µg/mL); MIC [3]: 4.32 µM (≈ 6 µg/mL); MIC (Staphylococcus aureus): 46.1 µM (≈ 64 µg/mL)
4 | CC(C)C[C@H](NC(=O)[C@H](CCCCN)NC(=O)[C@H](CCCN=C(N)N)NC(=O)[C@H](Cc1cnc[nH]1)NC(=O)[C@H](C)NC(=O)[C@H](CCCN=C(N)N)NC(=O)[C@H](Cc1cnc[nH]1)NC(=O)CNC(=O)[C@H](Cc1ccccc1)NC(=O)[C@H](CCCN=C(N)N)NC(=O)[C@H](CCCN=C(N)N)NC(=O)CNC(=O)[C@H](Cc1cnc[nH]1)NC(=O)[C@H](CCCN=C(N)N)NC(=O)CNC(=O)[C@@H](NC(=O)[C@H](CCCCN)NC(=O)[C@@H](N)CO)C(C)C)C(=O)O [SKVGRHGRRFGHRAHRKL] | ≥ 100 | ≥ 100 | ≥ 100 | ≥ 100 | ≥ 100 | ≥ 100 | ≥ 100 | ≥ 100 | ≥ 100 | ≥ 100 | ≥ 100 | ≥ 100 | 
5 | CC(C)C[C@H](NC(=O)[C@H](CCCCN)NC(=O)[C@H](CCCN=C(N)N)NC(=O)[C@H](Cc1cnc[nH]1)NC(=O)[C@H](C)NC(=O)[C@H](CCCN=C(N)N)NC(=O)[C@H](Cc1cnc[nH]1)NC(=O)CNC(=O)[C@H](Cc1ccccc1)NC(=O)[C@H](CCCN=C(N)N)NC(=O)[C@H](CCCN=C(N)N)NC(=O)[C@H](CC(C)C)NC(=O)[C@H](Cc1cnc[nH]1)NC(=O)[C@H](CCCN=C(N)N)NC(=O)CNC(=O)[C@@H](NC(=O)[C@H](CCCCN)NC(=O)[C@@H](N)CO)C(C)C)C(=O)O [SKVGRHLRRFGHRAHRKL] | ≥ 100 | 9.38 (≈ 20.7 µg/mL) | ≥ 100 | 18.8 (≈ 41.5 µg/mL) | 18.8 (≈ 41.5 µg/mL) | ≥ 100 | ≥ 100 | ≥ 100 | 18.8 (≈ 41.5 µg/mL) | ≥ 100 | ≥ 100 | 12.5 (≈ 27.6 µg/mL) | 
6 | CC(C)C[C@H](NC(=O)[C@H](CCCCN)NC(=O)[C@H](CCCN=C(N)N)NC(=O)[C@H](Cc1cnc[nH]1)NC(=O)[C@H](C)NC(=O)[C@H](CCCN=C(N)N)NC(=O)[C@H](Cc1cnc[nH]1)NC(=O)[C@H](CC(C)C)NC(=O)[C@H](Cc1ccccc1)NC(=O)[C@H](CCCN=C(N)N)NC(=O)[C@H](CCCN=C(N)N)NC(=O)[C@H](CC(C)C)NC(=O)[C@H](Cc1cnc[nH]1)NC(=O)[C@H](CCCN=C(N)N)NC(=O)CNC(=O)[C@@H](NC(=O)[C@H](CCCCN)NC(=O)[C@@H](N)CO)C(C)C)C(=O)O [SKVGRHLRRFLHRAHRKL] | ≥ 100 | 2.34 (≈ 5.31 µg/mL) | ≥ 100 | 4.69 (≈ 10.6 µg/mL) | 3.13 (≈ 7.1 µg/mL) | ≥ 100 | ≥ 100 | ≥ 100 | 4.69 (≈ 10.6 µg/mL) | ≥ 100 | ≥ 100 | 2.34 (≈ 5.31 µg/mL) | 
